Where two headings read alike, the source gives them in different places.
What was measured:
[1] = system: subjects with ESRD receiving hemodialysis; assay: MK-7 in subjects with stable ESRD receiving hemodialysis: biomarker changes day 1 to day 15; format: in vivo, human; details: 10 mg capsule of MK-7 per day orally for 14 days; change between day 1 and day 15
Description: This example describes the administration of MK-7 to subjects with ESRD receiving hemodialysis, and who are at risk of developing calciphylaxis. Administration of MK-7 can result in a change in certain biomarker levels indicative of the prevention of the development of calciphylaxis, or in the arrest or slowing down of the development of calciphylaxis. A number of subjects with stable ESRD but without calciphylaxis are enrolled in the study, whereupon the subjects orally receive a 10 mg capsule of MK-7 per day for 14 days. The levels of certain biomarkers, including uncarboxylated Matrix Gla Protein (MGP), uncarboxylated osteocalcin, osteoprotegerin, Fetuin A and hs-CRP were assessed on day 1 and on day 15 (the end of treatment), and the changes between day 1 and day 15 were calculated.

[2] = system: subjects at risk of development of calciphylaxis; assay: MK-7 and/or MKH2-7 in subjects at risk for development of calciphylaxis (Example 1); format: in vivo, human; details: 10 mg, 25 mg or 50 mg orally once daily; blood samples; contemplated
From the text: This example describes the administration of MK-7 and/or MKH2-7 to subjects at risk for development of calciphylaxis, but who have not yet developed the characteristic skin lesions of calciphylaxis. Risk factors to be considered include, but are not limited to, diabetes mellitus, obesity, ESRD and/or hemodialysis, and prior treatment with warfarin (Nigwekar et al. (2016), supra). It is contemplated that administration of MK-7 and/or MKH2-7 can result in protection of the subjects from skin lesions and a change in certain biomarker levels indicative of the prevention of the development of calciphylaxis.
(§1) Subjects at risk of development of calciphylaxis orally receive MK-7 and/or MKH2-7 at 10 mg, 25 mg or 50 mg once daily for at least 2 weeks, 4 weeks, 6 weeks, 8 weeks, 3 months, 6 months, 1 year, or indefinitely. The dosage form is a 10 mg or 25 mg soft-gel capsule. Two 25 mg capsules are be administered once daily to the 50 mg dosage cohort.
It should be noted that not all subjects with elevated risk factors for calciphylaxis will develop the characteristic skin lesions of calciphylaxis. The intent of treating with MK-7 and/or MKH2-7 proactively (prior to a clinical diagnosis of calciphylaxis) is the prevention of lesion appearance. Thus, a drop in frequency of, or elimination of lesion appearances is contemplated to be a successful treatment.
Several biomarkers can be assessed to determine the efficacy of MK-7 and/or MKH2-7 at the three dose levels. Exemplary biomarkers include PIVKA-II; uncarboxylated and total Matrix Gla Protein (MGP); uncarboxylated, carboxylated and total osteocalcin protein; uncarboxylated, carboxylated and total Protein C, osteoprotegerin, Fetuin A and hs-CRP.
Blood samples are obtained to measure the biomarkers according to the following schedule. Blood sampling can occur during treatment on a weekly or monthly basis. It is contemplated that administration of MK-7 and/or MKH2-7 will result in (i) an increase in PIVKA-II, osteoprotegerin, or Fetuin A, which is indicative of slowing the progression of, arresting, or reversing, calciphylaxis, (ii) a decrease in uncarboxylated MGP, uncarboxylated osteocalcin, and/or uncarboxylated Protein C, which is indicative of slowing the progression of, arresting, or reversing calciphylaxis.
Further, pulse wave velocity (PWV) can be measured to assess arterial compliance. Improved vascular compliance will be indicative of slowing the progression of, arresting, or reversing calciphylaxis.

[3] = system: subjects diagnosed with calciphylaxis; assay: MK-7 and/or MKH2-7 in subjects diagnosed with calciphylaxis (Example 2); format: in vivo, human; details: 10 mg, 25 mg or 50 mg orally once daily; contemplated
From the text: This example describes the administration of MK-7 and/or MKH2-7 to subjects diagnosed with calciphylaxis. Typical symptoms include presentation of characteristic painful skin lesions (Nigwekar et al. (2015) “Calciphylaxis: Risk Factors, Diagnosis, and Treatment.” Am. J. Kidney Dis. 66:133-46). Definitive diagnosis of calciphylaxis is achieved via skin biopsy (Nigwekar, 2015 supra). Further conditions need to be considered for correct diagnosis (Id.).
as §1, with “diagnosed with” for “at risk of development of”, “are” for “are be”
The arrest of, or decreases in lesion size and frequency is contemplated to be an indication of successful treatment.
Additionally, because calciphylaxis has a considerable mortality risk, increased overall survival time of diagnosed subjects will be an indication of treatment success. It is contemplated that administration of MK-7 and/or MKH2-7 according to the foregoing will result in an increased overall survival time of diagnosed subjects.

[4] = system: adult hemodialysis patients; details: cited from earlier work
[5] = system: osteocalcin; details: 100-200 μg/d for 4 to 12 weeks; significantly and in a dose-dependent manner; cited from earlier work
[6] = vitamin K2 supplementation, hemodialysis patients

Compound | average increase in Fetuin A [1] [%] | average increase in osteoprotegerin [1] [%] | average reduction in hs-CRP [1] [%] | average reduction in uncarboxylated MGP [1] [%] | average reduction in uncarboxylated osteocalcin [1] [%] | Fetuin A [2] | PIVKA-II [2] | osteoprotegerin [2] | uncarboxylated MGP [2] | uncarboxylated Protein C [2] | uncarboxylated osteocalcin [2] | overall survival time of diagnosed subjects [3] | response rate in the reduction in dp-ucMGP levels ([4]; group receiving 135 μg of menaquinone-7) [%] | response rate in the reduction in dp-ucMGP levels ([4]; group receiving 360 μg of menaquinone-7) [%] | ratio of carboxylated to undercarboxylated osteocalcin [5] | circulating PIVKA-II levels [4, 6] | circulating dp-ucMGP levels [4, 6] | circulating uncarboxylated osteocalcin levels [4, 6]
CC(C)=CCC/C(C)=C/CC/C(C)=C/CC/C(C)=C/CC/C(C)=C/CC/C(C)=C/CC/C(C)=C/CC1=C(C)C(=O)c2ccccc2C1=O [MK-7, 2-[(2E,6E,10E,14E,18E,22E)-3,7,11,15,19,23,27-heptamethyloctacosa-2,6,10,14,18,22,26-heptaenyl]-3-methylnaphthalene-1,4-dione] | 23.1 | 14.5 | −35.8 | −21.9 | −55.5 | increase | increase | increase | decrease | decrease | decrease | increased | 77 | 93 | increase | – | – | –
CC(C)=CCC/C(C)=C/CC/C(C)=C/CC/C(C)=C/CC/C(C)=C/CC/C(C)=C/CC/C(C)=C/Cc1c(C)c(O)c2ccccc2c1O [MKH2-7, 2-[(2E,6E,10E,14E,18E,22E)-3,7,11,15,19,23,27-heptamethyloctacosa-2,6,10,14,18,22,26-heptaenyl]-3-methylnaphthalene-1,4-diol] | – | – | – | – | – | increase | increase | increase | decrease | decrease | decrease | increased | – | – | – | – | – | –
Vitamin K2 | – | – | – | – | – | – | – | – | – | – | – | – | – | – | – | dose- and time-dependent decrease | dose- and time-dependent decrease | dose- and time-dependent decrease
